Laboratory results: US20250026745A1 (Bluejay Therapeutics, Inc., priority 2023, published 2025)
Read-outs that look alike come from different tables or passages of the source.

What was measured:
[1] = biological target: recombinant 17β-HSD13 protein (Homo sapiens (Human), UniProt Q7Z5P4); experiment: 17β-HSD13 biochemical assay (NAD+/NADH Glo chemiluminescence); settings: 17β-HSD13 50 nM, NAD+ 10 mM, β-estradiol 20 μM, 2 hours room temperature
Procedure: 17β-HSD13 biochemical assays are generically described in patents WO 2022/020730, WO 2021/003295, and WO 2023/023310. More specifically, recombinant 17β-HSD13 protein was assayed in a buffer containing 200 mM Tris pH 7.5, 0.01% Triton X-100, and 0.02% BSA into a 384-well assay plate. Compounds were incubated with 17β-HSD13 (final 50 nM) and NAD+ (final 10 mM) at room temperature for 1 h prior to substrate addition. The assay reaction was then initiated by addition of β-estradiol (final 20 μM), and the reaction mixture was incubated for 2 hours at room temperature. Product formation was detected with chemiluminescence by adding equal volume of NAD+/NADH Glo reagent (Promega, #G9062) and read on a PHERAstar microplate reader (BMG LABTECH). IC50 values were determined with GraphPad Prism®, where log-transformed concentration values and the inhibition data were fitted to a four-parameter logistic equation. Y=Bottom+(Top−Bottom)/(1+10^((Log IC50−X)*HillSlope)). The original, % control, or % inhibition data are represented by Y along with their minimal (Bottom) and maximal (Top) values. The inhibitor concentration is represented by X, IC50 is the concentration at 50% maximal value, and Hill Slope is the slope factor.

[2] = biological target: HEK293 cells expressing 17β-HSD13 (Homo sapiens (Human), UniProt Q7Z5P4); experiment: 17β-HSD13 cell-based assay (β-estradiol conversion, LC-MS/MS)
Procedure: HEK293 cells expressing 17β-HSD13 either stably or transiently were incubated with compounds for 60 min at 37° C. in a humidified incubator. After this first incubation step, β-estradiol was added to each well of the microtiter plate and incubated for 3 h at 37° C. in the humidified incubator. After treatment with β-Estradiol, 50 μL of supernatant was transferred to a 96-V plate containing 100 μL acetonitrile and centrifuged at 3900 rpm for 45 min. Finally, 50 μL of supernatant were taken for LC-MS/MS analysis. The chromatography part was run on a Xbridge 30 mm×2.1 mm column (Waters), at 40 degrees Celsius and a flow rate of 0.8 mL/min for 5 min, while the MS was done on a Q Exactive Orbitrap (Fisher Scientific) in Target SIM mode and negative polarity with a spray voltage of 3.5 kV. EC50 values were determined with GraphPad Prism®, where log-transformed concentration values and the inhibition data were fitted to a four-parameter logistic equation. Y=Bottom+(Top−Bottom)/(1+10^((Log EC50−X)*Hill Slope)). The original, % control, or % inhibition data are represented by Y along with their minimal (Bottom) and maximal (Top) values. The inhibitor concentration is represented by X, EC50 is the concentration at 50% maximal value, and Hill Slope is the slope factor.

[3] = HEK293 cells stably expressing 17β-HSD13 (footnote b), read-out: EC50, nM Stable
[4] = HEK293 cells transiently expressing 17β-HSD13 (footnote a), read-out: EC50, nM Transient

Chain of HEK293 cells expressing 17β-HSD13 (Q7Z5P4 20-300): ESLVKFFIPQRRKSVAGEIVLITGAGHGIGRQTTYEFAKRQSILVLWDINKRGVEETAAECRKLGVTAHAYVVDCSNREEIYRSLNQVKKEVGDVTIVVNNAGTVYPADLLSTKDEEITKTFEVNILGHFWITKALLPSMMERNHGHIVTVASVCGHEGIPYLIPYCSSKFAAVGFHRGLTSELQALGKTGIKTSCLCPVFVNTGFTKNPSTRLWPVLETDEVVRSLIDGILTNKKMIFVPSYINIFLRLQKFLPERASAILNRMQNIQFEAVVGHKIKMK
Chain of recombinant 17β-HSD13 protein (Q7Z5P4 20-300): as above

| Compound | IC50 [1] | EC50 [2, 3] | EC50 [2, 4] |
| --- | --- | --- | --- |
| Cc1c(-c2nnc(CN3C(=O)N([C@@H](c4ccccc4)C(F)(F)F)C(=O)C34CC4)s2)ccc(F)c1O [Compound I-91, (S)-4-((5-(4-fluoro-3-hydroxy-2-methylphenyl)-1,3,4-thiadiazol-2-yl)methyl)-6-(2,2,2-trifluoro-1-phenylethyl)-4,6-diazaspiro[2.4]heptane-5,7-dione] | 4 nM | 108 nM | – |
| O=C1N(CC23CC(C2)C3)C(=O)C2(CC2)N1Cc1nnc(-c2ccc(F)c(O)c2F)s1 [Compound I-6, 6-(bicyclo[1.1.1]pentan-1-ylmethyl)-4-((5-(2,4-difluoro-3-hydroxyphenyl)-1,3,4-thiadiazol-2-yl)methyl)-4,6-diazaspiro[2.4]heptane-5,7-dione] | 22.1 ± 2.18 nM | – | 165 nM |
| 6-cyclopropyl-4-[[5-(2,4-difluoro-3-hydroxy-phenyl)-1,3,4-thiadiazol-2-yl]methyl]-4,6-diazaspiro[2.4]heptane-5,7-dione [Compound I-41] | 4.15 nM | 18.9 nM | – |
| CC(C)N1C(=O)N(Cc2nnc(-c3ccc(F)c(O)c3F)s2)C2(CC2)C1=O [Compound I-5, 4-((5-(2,4-difluoro-3-hydroxyphenyl)-1,3,4-thiadiazol-2-yl)methyl)-6-isopropyl-4,6-diazaspiro[2.4]heptane-5,7-dione] | 8.99 ± 0.322 nM | – | 42.2 nM |
| C[C@@H](c1ccccc1)N1C(=O)N(Cc2nnc(-c3ccc(F)c(O)c3Cl)s2)C2(CC2)C1=O [Compound I-32, (S)-4-((5-(2-chloro-4-fluoro-3-hydroxyphenyl)-1,3,4-thiadiazol-2-yl)methyl)-6-(1-phenylethyl)-4,6-diazaspiro[2.4]heptane-5,7-dione] | 3.72 nM | 14.7 nM | – |
| O=C1N(CC(F)(F)F)C(=O)C2(CC2)N1Cc1nnc(-c2cc(F)c(F)c(O)c2F)s1 [Compound I-68, 4-((5-(2,4,5-trifluoro-3-hydroxyphenyl)-1,3,4-thiadiazol-2-yl)methyl)-6-(2,2,2-trifluoroethyl)-4,6-diazaspiro[2.4]heptane-5,7-dione] | – | 35 nM | – |
| CCCN1C(=O)N(Cc2nnc(-c3ccc(F)c(O)c3F)s2)C2(CC2)C1=O [Compound I-4, 4-((5-(2,4-difluoro-3-hydroxyphenyl)-1,3,4-thiadiazol-2-yl)methyl)-6-propyl-4,6-diazaspiro[2.4]heptane-5,7-dione] | 10.6 ± 0.919 nM | – | 20.6 nM |
| CCN1C(=O)N(Cc2nnc(-c3ccc(Cl)c(O)c3Cl)s2)C2(CC2)C1=O [Compound I-9, 4-((5-(2,4-dichloro-3-hydroxyphenyl)-1,3,4-thiadiazol-2-yl)methyl)-6-ethyl-4,6-diazaspiro[2.4]heptane-5,7-dione] | 150 nM | – | 960 nM |
| CC(C)(C)N1C(=O)N(Cc2nnc(-c3ccc(F)c(O)c3Cl)s2)C2(CC2)C1=O [Compound I-50, 6-(tert-butyl)-4-((5-(2-chloro-4-fluoro-3-hydroxyphenyl)-1,3,4-thiadiazol-2-yl)methyl)-4,6-diazaspiro[2.4]heptane-5,7-dione] | 4.6 nM | 35.1 ± 6.03 nM | – |
| O=C1N(Cc2ccccc2)C(=O)C2(CC2)N1Cc1nnc(-c2ccc(F)c(O)c2Cl)s1 [Compound I-35, 6-benzyl-4-((5-(2-chloro-4-fluoro-3-hydroxyphenyl)-1,3,4-thiadiazol-2-yl)methyl)-4,6-diazaspiro[2.4]heptane-5,7-dione] | 5.33 nM | 40.9 nM | – |
| CCN1C(=O)N(Cc2nnc(-c3ccc(F)c(O)c3F)s2)C2(CC2)C1=O [Compound I-7, 4-((5-(2,4-difluoro-3-hydroxyphenyl)-1,3,4-thiadiazol-2-yl)methyl)-6-ethyl-4,6-diazaspiro[2.4]heptane-5,7-dione] | 16.6 ± 8.74 nM | – | 18.8 nM |
| O=C1N(Cc2ccccc2)C(=O)C2(CC2)N1Cc1nnc(-c2cc(F)c(F)c(O)c2F)s1 [Compound I-69, 6-benzyl-4-((5-(2,4,5-trifluoro-3-hydroxyphenyl)-1,3,4-thiadiazol-2-yl)methyl)-4,6-diazaspiro[2.4]heptane-5,7-dione] | – | 21.5 nM | – |
| O=C1N(Cc2ccccc2)C(=O)C2(CC2)N1Cc1nnc(-c2cc(C(F)F)c(F)c(O)c2F)s1 [Compound I-65, 6-benzyl-4-((5-(5-(difluoromethyl)-2,4-difluoro-3-hydroxyphenyl)-1,3,4-thiadiazol-2-yl)methyl)-4,6-diazaspiro[2.4]heptane-5,7-dione] | – | 19.2 nM | – |

Further lines, results first:

| IC50 [1] | EC50 [2, 3] | EC50 [2, 4] | Compound |
| --- | --- | --- | --- |
| 0.79 nM | 4.66 nM | – | O=C1N([C@@H](c2ccc(-c3ccc(F)cc3)cc2F)C(F)(F)F)C(=O)C2(CC2)N1Cc1nnc(-c2ccc(F)c(O)c2F)s1 [Compound I-97, (S)-4-((5-(2,4-difluoro-3-hydroxyphenyl)-1,3,4-thiadiazol-2-yl)methyl)-6-(1-(3,4′-difluoro-[1,1′-biphenyl]-4-yl)-2,2,2-trifluoroethyl)-4,6-diazaspiro[2.4]heptane-5,7-dione] |
| 2.14 nM | 29.2 nM | – | O=C1N(Cc2ccccc2)C(=O)C2(CC2)N1Cc1nnc(-c2cc(C(F)(F)F)cc(O)c2F)s1 [Compound I-55, 6-benzyl-4-((5-(2-fluoro-3-hydroxy-5-(trifluoromethyl)phenyl)-1,3,4-thiadiazol-2-yl)methyl)-4,6-diazaspiro[2.4]heptane-5,7-dione] |
| 2.5 nM | 4.74 nM | – | O=C1N(Cc2nnc(-c3ccc(F)c(O)c3F)s2)C2(CC2)C(=O)N1C1(c2ccccc2)CC1 [Compound I-86, 4-((5-(2,4-difluoro-3-hydroxyphenyl)-1,3,4-thiadiazol-2-yl)methyl)-6-(1-phenylcyclopropyl)-4,6-diazaspiro[2.4]heptane-5,7-dione] |
| 0.857 ± 0.153 nM | 5.63 ± 0.961 nM | – | O=C1N(C(c2ccc(F)cc2F)C(F)(F)F)C(=O)C2(CC2)N1Cc1nnc(-c2ccc(F)c(O)c2Cl)s1 (single isomer, unassigned) [Compound I-54A] |
| 1.09 ± 0.23 nM | 6.41 ± 1.23 nM | – | O=C1N([C@@H](c2ccccc2)C(F)(F)F)C(=O)C2(CC2)N1Cc1nnc(-c2ccc(F)c(O)c2Cl)s1 [Compound I-52, 4-[[5-(2-chloro-4-fluoro-3-hydroxy-phenyl)-1,3,4-thiadiazol-2-yl]methyl]-6-[(1S)-2,2,2-trifluoro-1-phenyl-ethyl]-4,6-diazaspiro[2.4]heptane-5,7-dione] |
| 1.53 nM | 10.7 nM | – | O=C1N(C(c2ccc(F)cc2F)C(F)(F)F)C(=O)C2(CC2)N1Cc1nnc(-c2ccc(F)c(O)c2Cl)s1 (stereo not shown) [Compound I-54, 4-[[5-(2-chloro-4-fluoro-3-hydroxy-phenyl)-1,3,4-thiadiazol-2-yl]methyl]-6-[1-(2,4-difluorophenyl)-2,2,2-trifluoro-ethyl]-4,6-diazaspiro[2.4]heptane-5,7-dione] |
| 1.01 ± 0.125 nM | 8.38 nM | – | O=C1N([C@H](c2ccc(F)cc2F)C(F)(F)F)C(=O)C2(CC2)N1Cc1nnc(-c2ccc(F)c(O)c2F)s1 [Compound I-90A, (R)-4-((5-(2,4-difluoro-3-hydroxyphenyl)-1,3,4-thiadiazol-2-yl)methyl)-6-(1-(2,4-difluorophenyl)-2,2,2-trifluoroethyl)-4,6-diazaspiro[2.4]heptane-5,7-dione] |
| 3.11 nM | 121 nM | – | O=C1N([C@@H](c2ccc(-c3ccc(F)cc3)cc2F)C(F)(F)F)C(=O)C2(CC2)N1Cc1nnc(-c2ccc(F)c(O)n2)s1 [Compound I-96, (S)-6-(1-(3,4′-difluoro-[1,1′-biphenyl]-4-yl)-2,2,2-trifluoroethyl)-4-((5-(5-fluoro-6-hydroxypyridin-2-yl)-1,3,4-thiadiazol-2-yl)methyl)-4,6-diazaspiro[2.4]heptane-5,7-dione] |
| 1.17 ± 0.185 nM | 4.95 ± 0.0122 nM | – | O=C1N([C@@H](c2ccccc2)C(F)(F)F)C(=O)C2(CC2)N1Cc1nnc(-c2ccc(F)c(O)c2F)s1 [Compound I-99A, 4-[[5-(2,4-difluoro-3-hydroxy-phenyl)-1,3,4-thiadiazol-2-yl]methyl]-6-[(1S)-2,2,2-trifluoro-1-phenyl-ethyl]-4,6-diazaspiro[2.4]heptane-5,7-dione] |
| 2.28 ± 0.933 nM | 11.6 nM | – | O=C1N(Cc2ccccc2)C(=O)C2(CC2)N1Cc1nnc(-c2ccc(F)c(O)c2F)s1 [Compound I-20, 6-benzyl-4-((5-(2,4-difluoro-3-hydroxyphenyl)-1,3,4-thiadiazol-2-yl)methyl)-4,6-diazaspiro[2.4]heptane-5,7-dione] |
